In brackets after ≈: the same amount, converted by molar mass. Entries after “also recorded” stand apart in the source; their conditions may differ. Where two headings read alike, the source gives them in different places.
Columns and labels:
[1] = system: S. epidermidis biofilm in catheter; assay: Histopathology of CVC biofilms in the rat model; assay type: in vivo, Sprague Dawley rats
Experimental: The nature of the CVC infection and resulting biofilms in the catheter was determined through histopathology. The data on histopathology can be summarized as follows: • 1. Eight days after implantation, the rat central venous catheter model develops focal biofilms with or without bacterial colonies in the catheter's inner luminal surfaces. At this time point, the thickness of the biofilm varies between 7 to 15 microns. • 2. After 12 days of implantation, the fibrils making up the inner luminal surface biofilm appear to be denser and more organized, and the biofilm layer is slightly thicker (up to 25 microns). • 3. In the saline negative controls, bacterial colonies were present in the biofilm, and identified as Gram positive cocci. • 4. […] However, cocci-like, Gram positive individual round structures were noted. • 5.
At day 12 post infection in untreated rats, as in the previous time point, biofilms tended to be present in the inner luminal surfaces of the indwelling catheter, 5-25 microns thick, and contained variable numbers of basophilic granular bacterial colonies (confirmed by Gram stain). However, in contrast to the previous time point, focal portions of the luminal protein cast appeared to be more organized and contained numerous bluish bacterial colonies. See FIG. 10 showing the biofilm appearance at day 12 post infection. […] Rat A1 served as negative control and received saline (2 mL/kg SC+saline via catheter); Rat A6 received low-dose daptomycin (10 mg/kg SC+5 mg/mL via catheter); Rat A12 received high-dose daptomycin (33 mg/kg SC+5 mg/mL via catheter); and Rat A17 received vancomycin (50 mg/kg SC+5 mg/mL via catheter). Tissues from the four rats were evaluated. FIG. 11, below, is a composite of the findings for all four rats.
FIG. 11 provides histopathological evidence of daptomycin and vancomycin efficacy after 4 days of infusion therapy. In FIG. 11, from left to right, the images illustrate the CVC tissues from rats A1, A6, A12, and A17, respectively. The upper images are all H&E-stained and the bottom images are all Gram-stained. […] These round structures surrounded or encircled cell membranes.

[2] = system: Methicillin-resistant coagulate negative staphylococci biofilms; assay type: cell-based, coagulase negative staphylococci (S. epidermidis isolates)
Experimental: Methicillin-resistant coagulate negative staphylococci biofilms were grown to approximately 10^5 cells per cm^2 for 24 h in glass test tubes, planktonic bacteria rinsed away and Mueller Hinton broth (calcium supplemented to […] in daptomycin tests) containing antimicrobials added to the tubes. The concentrations of antimicrobials studied were two-fold dilutions from 64 to 1 μg/mL of daptomycin, rifampin, or daptomycin plus 0.5 μg/mL rifampin. The tests were incubated overnight in room air at 37° C. The cell density in rinsed biofilms was determined prior to addition of antimicrobials and after incubation. The change in bacterial density after incubation with antimicrobials was determined, and the results were expressed as the lowest antimicrobial concentration that killed 99.90% of biofilm bacteria. Bacteria recovered from tests containing rifampin were tested for rifampin susceptibility.

[3] = system: S. epidermidis CVC infection; assay: Rat model of CVC infection, infusion therapy; assay type: in vivo, Sprague Dawley rats
Experimental: (§1) Male Sprague Dawley rats (˜250 g) with catheterized jugular veins were used in these studies. Rat catheters (polyurethane tubing, 0.025 inch internal diameter) were inoculated with a culture of S. epidermidis at 5×10^8 CFU/ml. The total volume of the catheters is approximately 40 μl. The catheters were flushed with heparinized saline 1 hour after inoculation, and were maintained by daily flushes. The catheter infection was monitored by daily blood draws that were plated and quantified.
(§2) Daptomycin, vancomycin and nafcillin were used as therapy. Two different dosing regimes were used. The first mimicked clinical infusion with daptomycin administered at 5 mg/ml in the line for 30 minutes once daily compared to vancomycin at 5 mg/ml for 60 minutes twice daily, for a total of 4 days. The second regime simulated antibiotic lock therapy with an 18 hour exposure of daptomycin or vancomycin at 5 mg/ml, followed by a heparinized saline flush, daily for 3 days. In both regimes, the animals received parenteral doses of the appropriate antibiotic by subcutaneous route to simulate total body exposure (as it was not possible to administer the correct dosages through the line at 5 mg/ml). Most trials involved a therapy period, followed by a period of no antibiotic therapy to monitor for resurgence of infection due to surviving bacterial colonies.
(§3) Infection levels were monitored by daily blood draws through the infected catheter. For the terminal harvest, a final blood draw was taken and then the flushed catheter was harvested, and analyzed for surviving bacteria by sonication, vortexing, and plating. The vena cava, heart, lung, kidney, and spleen were assayed as potential metastatic infection sites by aseptic harvest, homogenization, and plating.

[4] = system: stationary phase S. epidermidis; assay: In vitro model of stationary phase bacteria (kill kinetics); assay type: cell-based; conditions: for Cidal activity against stationary phase culture: through 24 hours
Experimental: The impact of cidal activity of antibacterial compounds on stationary phase bacteria was assayed. Cultures of S. epidermidis and S. aureus were grown to stationary phase (>1×10^9 and centrifuged, washed 2×, and then resuspended into saline or lactated Ringer's solution. The cultures were treated with either daptomycin or vancomycin at 5 mg/ml and the decrease in viable bacteria were measured through 24 hours to determine the kill kinetics.

[5] = system: Staphylococcus epidermidis; assay: Susceptibility (MIC) of S. epidermidis isolates used in CVC studies
Staphylococcus aureus = assay: Susceptibility (MIC) of S. aureus #42 control strain; assay type: cell-based; conditions: strain 42 Staphylococcus aureus; read-out: MIC
[6] = system: S. epidermidis CVC infection; assay: Rat model of CVC infection, antibiotic lock therapy; assay type: in vivo, Sprague Dawley rats
Experimental: as §1, §2, §3

[7] = Antimicrobial Concentration ≧64
[8] = following 7 days of antibiotic-free heparin flushes

CCCCCCCCCC(=O)N[C@@H](Cc1c[nH]c2ccccc12)C(=O)N[C@H](CC(N)=O)C(=O)N[C@@H](CC(=O)O)C(=O)N[C@@H]1C(=O)NCC(=O)N[C@@H](CCCN)C(=O)N[C@@H](CC(=O)O)C(=O)N[C@H](C)C(=O)N[C@@H](CC(=O)O)C(=O)NCC(=O)N[C@H](CO)C(=O)N[C@@H]([C@H](C)CC(=O)O)C(=O)N[C@@H](CC(=O)c2ccccc2N)C(=O)O[C@@H]1C [Daptomycin]
Biofilm formation and Gram positive bacterial colonies in the biofilm (histopathology summary) ([1]; 5 mg/mL via the catheter): did not prevent biofilm formation, but prevented the growth and presence of Gram positive bacterial colonies in the biofilm
Bacterial colonies in biofilm, histopathology of single rats ([1]; after 4 days of infusion therapy, rat A12 daptomycin 33 mg/kg SC + 5 mg/mL via catheter, rat A17 vancomycin 50 mg/kg SC + 5 mg/mL via catheter): not interpreted to be bacterial colonies
# of isolates (lowest concentration that killed 99.90% of biofilm bacteria) ([2]; Antimicrobial Concentration 1): 0
# of isolates (lowest concentration that killed 99.90% of biofilm bacteria) ([2]; Antimicrobial Concentration 2): 5
Mean log10 reduction ([2]; Antimicrobial Concentration 2): 3.3 log10
# of isolates (lowest concentration that killed 99.90% of biofilm bacteria) ([2]; Antimicrobial Concentration 4): 4
Mean log10 reduction ([2]; Antimicrobial Concentration 4): 3.2 log10
# of isolates (lowest concentration that killed 99.90% of biofilm bacteria) ([2]; Antimicrobial Concentration 8): 5
Mean log10 reduction ([2]; Antimicrobial Concentration 8): 3.8 log10
# of isolates (lowest concentration that killed 99.90% of biofilm bacteria) ([2]; Antimicrobial Concentration 16): 1
Mean log10 reduction ([2]; Antimicrobial Concentration 16): 3.5 log10
# of isolates (lowest concentration that killed 99.90% of biofilm bacteria) ([2]; Antimicrobial Concentration 32): 2
Mean log10 reduction ([2]; Antimicrobial Concentration 32): 3.6 log10
# of isolates (lowest concentration that killed 99.90% of biofilm bacteria) [2, 7]: 10
Mean log10 reduction [2, 7]: 2.0 log10
Emergence of rifampin resistance in biofilm isolates ([2]; after exposure overnight): did not prevent emergence of rifampin resistance
Cidal concentration in biofilm relative to comparator ([2]; comparison with rifampin): cidal at lower concentrations than was rifampin
Isolates with bactericidal activity in biofilm ([2]; with ≦32 μg/mL daptomycin): 27 of 30
Catheter infection by CVC blood draw after infusion therapy ([3]; 5 mg/ml in line, daptomycin once a day, vancomycin twice a day, after three days of therapy (day 8)): reduced most catheter infections to a non-detectable level
Overall outcome of infusion therapy ([3]; 30 minute infusion at 5 mg/ml): temporarily reduced catheter infections to a non-detectable level, but infection resurgence was common; also recorded: reduced biofilm to non-detectable level, but a resurgence of infection was common
Metastatic infection after infusion therapy (vena cava, heart, lung, kidney, spleen) ([3]; infusion therapy, same groups as FIG. 3): very little metastatic infection at any site
Cidal activity against stationary phase culture ([4]; 5 mg/ml in lactated Ringer's): rapidly cidal; also recorded: cidal in lactated Ringer's
Cidal activity against stationary phase culture ([4]; 5 mg/ml in saline): neither daptomycin nor vancomycin had cidal activity
Cidal activity against stationary phase S. epidermidis (conclusion) ([4]; in vitro, medium not stated): cidal
MIC ([5]; strain 119 Staphylococcus epidermidis): 0.25 µg/mL (≈ 0.154 µM)
MIC ([5]; strain 1315 Staphylococcus epidermidis): 0.5 µg/mL (≈ 0.309 µM)
MIC ([5]; strain 1316 Staphylococcus epidermidis): 0.5 µg/mL (≈ 0.309 µM)
MIC ([5]; strain 1317 Staphylococcus epidermidis): 1 µg/mL (≈ 0.617 µM)
MIC ([5]; strain 1318 Staphylococcus epidermidis): 1 µg/mL (≈ 0.617 µM)
MIC ([5]; strain 1319 Staphylococcus epidermidis): 1 µg/mL (≈ 0.617 µM)
MIC ([5]; strain 1320 Staphylococcus epidermidis): 0.5 µg/mL (≈ 0.309 µM)
MIC (Staphylococcus aureus): 0.5 µg/mL (≈ 0.309 µM)
Overall outcome of lock therapy ([6]; 18 hour lock at 5 mg/ml): curative and prevented resurgence; also recorded: reduced biofilm to a non-detectable level and largely prevented resurgence of infection
Animals with positive blood draws after lock therapy [6, 8]: 0/6
Animals with positive catheter at harvest after lock therapy [6, 8]: 1/6
Metastatic infection after lock therapy ([6]; lock therapy combined with SC dosing): cleared and prevented reemergence of metastatic infection

Reference: patent publication US8003673B2, “Daptomycin for the treatment of biofilm and catheter salvage” (Cubist Pharmaceuticals, Inc., priority 2006, dated 2011)
